Reference: ChEMBL document CHEMBL5360590, “Phyllospongianes A-E, Dinorscalarane Sesterterpenes from the Marine Sponge Phyllospongia foliascens” (J Nat Prod, 2023)
≈ marks a conversion by molar mass, not a printed value.

Experiments:
Enterococcus faecalis = assay: Antibacterial activity against Enterococcus faecalis assessed as bacterial growth inhibition; assay type: functional
[1] = Cytotoxicity against human Enzalutamide-resistant LNCaP C4-2 cells assessed as reduction in cell viability by CCK-8 assay; assay type: functional, cell-based
HT-29 = assay: Cytotoxicity against human HT-29 cells assessed as reduction in cell viability by CCK-8 assay; assay type: functional, cell-based
HepG2 = assay: Cytotoxicity against human HepG2 cells assessed as reduction in cell viability by CCK-8 assay; assay type: functional, cell-based
Vibrio vulnificus = assay: Antibacterial activity against Vibrio vulnificus assessed as bacterial growth inhibition; assay type: functional
Pseudomonas aeruginosa = assay: Antibacterial activity against Pseudomonas aeruginosa assessed as bacterial growth inhibition; assay type: functional
NCI-H460 = assay: Cytotoxicity against human NCI-H460 cells assessed as reduction in cell viability by CCK-8 assay; assay type: functional, cell-based
Escherichia coli = assay: Antibacterial activity against Escherichia coli assessed as bacterial growth inhibition; assay type: functional
MCF7 = assay: Cytotoxicity against human MCF7 cells assessed as reduction in cell viability by CCK-8 assay; assay type: functional, cell-based
Bacillus subtilis = assay: Antibacterial activity against Bacillus subtilis assessed as bacterial growth inhibition; assay type: functional
Vibrio parahaemolyticus = assay: Antibacterial activity against Vibrio parahaemolyticus assessed as bacterial growth inhibition; assay type: functional
MDA-MB-231 = assay: Cytotoxicity against human MDA-MB-231 cells assessed as reduction in cell viability by CCK-8 assay; assay type: functional, cell-based

Row | MIC (Enterococcus faecalis) [µg/mL] | MIC (Vibrio vulnificus) [µg/mL] | MIC (Pseudomonas aeruginosa) [µg/mL] | MIC (Escherichia coli) [µg/mL] | MIC (Bacillus subtilis) [µg/mL] | SMILES | IC50 [1] [µM] | IC50 (HT-29) [µM] | IC50 (HepG2) [µM] | IC50 (NCI-H460) [µM] | IC50 (MCF7) [µM] | MIC (Vibrio parahaemolyticus) [µg/mL] | IC50 (MDA-MB-231) [µM]
1 | 4 (≈ 8.76 µM) | 2 (≈ 4.38 µM) | 4 (≈ 8.76 µM) | 8 (≈ 17.5 µM) | 1 (≈ 2.19 µM) | CC[C@@]1(C)CCC[C@]2(C)[C@H]3C[C@H](OC(=O)CCC(C)C)[C@]4(C)C(C=O)=CC[C@H]4[C@]3(C)CC[C@@H]12 | 1.7 | 4.7 | 19.3 | 7.2 | 3.5 | 2 (≈ 4.38 µM) | 32.3
2 | > 64 | > 64 | > 64 | > 64 | 8 (≈ 16.9 µM) | CC[C@@]1(C)CCC[C@]2(C)[C@H]3C[C@H](OC(=O)C[C@H](O)C(C)C)[C@]4(C)C(C=O)=CC[C@H]4[C@]3(C)CC[C@@H]12 | 0.7 | 1.2 | 9.6 | 2 | 1.1 | > 64 | 13.2
3 |  |  |  |  |  | Cn1nnc2c(C(N)=O)ncn2c1=O [TEMOZOLOMIDE] | 18.2 |  | 5.9 |  |  |  | 14.4
4 | 16 (≈ 34.9 µM) | 64 (≈ 140 µM) | 32 (≈ 69.8 µM) | 32 (≈ 69.8 µM) | 16 (≈ 34.9 µM) | CCCCC(=O)O[C@H]1C[C@@H]2[C@@]3(C)CCC[C@](C)(CC)[C@@H]3CC[C@@]2(C)[C@@H]2CC=C(C(=O)O)[C@@]12C | 11.2 | 18 | > 50 | 13 | 15.3 | 16 (≈ 34.9 µM) | > 50
5 | 4 (≈ 8.46 µM) | 4 (≈ 8.46 µM) | 4 (≈ 8.46 µM) | 8 (≈ 16.9 µM) | 2 (≈ 4.23 µM) | CC[C@@]1(C)CCC[C@]2(C)[C@H]3C[C@H](OC(=O)CCC(C)C)[C@]4(C)C(C(=O)O)=CC[C@H]4[C@]3(C)CC[C@@H]12 | 3.7 | 13.2 | 20.1 | 11 | 12.3 | 2 (≈ 4.23 µM) | > 50
6 | 4 (≈ 9.04 µM) | 4 (≈ 9.04 µM) | 4 (≈ 9.04 µM) | 8 (≈ 18.1 µM) | 2 (≈ 4.52 µM) | CCCCC(=O)O[C@H]1C[C@@H]2[C@@]3(C)CCC[C@](C)(CC)[C@@H]3CC[C@@]2(C)[C@@H]2CC=C(C=O)[C@@]12C | 5.7 | 8.7 | 32.1 | 10.2 | 7.3 | 4 (≈ 9.04 µM) | > 50

Row | SMILES | MIC (Enterococcus faecalis) [µg/mL] | MIC (Vibrio vulnificus) [µg/mL] | MIC (Pseudomonas aeruginosa) [µg/mL] | MIC (Escherichia coli) [µg/mL] | MIC (Bacillus subtilis) [µg/mL] | IC50 [1] [µM] | IC50 (HT-29) [µM] | IC50 (HepG2) [µM] | IC50 (NCI-H460) [µM] | IC50 (MCF7) [µM] | MIC (Vibrio parahaemolyticus) [µg/mL] | IC50 (MDA-MB-231) [µM]
7 | C[C@H]1COc2c(N3CCN(C)CC3)c(F)cc3c(=O)c(C(=O)O)cn1c23 [LEVOFLOXACIN ANHYDROUS] | 0.25 (≈ 0.692 µM) | 0.5 (≈ 1.38 µM) | 0.25 (≈ 0.692 µM) | 0.25 (≈ 0.692 µM) | 0.25 (≈ 0.692 µM) |  |  |  |  |  | 0.5 (≈ 1.38 µM) | 
